Like-named read-outs stand apart in the source and are kept apart here. Ends that are not written are not given here.
What was measured:
PrP^SC in ScN2a cells = PrP^SC in ScN2a cells (Mus musculus, UniProt P04925); assay type: cell-based; conditions: for anti-prion activity at 30 nM: pH 7.4
[1] = assay type: physicochemical
[2] = assay type: physicochemical; conditions: pH 3
in vitro = conditions: mouse, ScN2a cells, pH 7.4, cell survival rate

Sequence of PrP^SC in ScN2a cells (P04925 23-230 limits assumed): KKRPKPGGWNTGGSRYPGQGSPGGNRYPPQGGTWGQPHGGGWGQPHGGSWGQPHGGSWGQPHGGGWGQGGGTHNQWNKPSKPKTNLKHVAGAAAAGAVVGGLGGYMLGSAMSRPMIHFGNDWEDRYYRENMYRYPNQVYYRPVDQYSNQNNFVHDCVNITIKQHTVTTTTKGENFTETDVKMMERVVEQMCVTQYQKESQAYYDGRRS

Compound: N=C(N)NCCC[C@H](NC(=O)CNC(=O)CCCCCN)C(=O)N[C@@H](CCCCN)C(=O)N[C@@H](CCCCN)C(=O)N[C@@H](CCCNC(=N)N)C(=O)N[C@@H](CCCNC(=N)N)C(=O)N[C@@H](CCC(N)=O)C(=O)N[C@@H](CCCNC(=N)N)C(=O)N[C@@H](CCCNC(=N)N)C(=O)N[C@@H](CCCNC(=N)N)C(=O)N1CCC[C@H]1C(=O)N1CCC[C@H]1C(=O)N[C@@H](CCC(N)=O)C(N)=O [Comparative Example 1, reference compound]
- cytotoxicity (ScN2a cells): remarkably low cytotoxicity

Compound: H-GRKKRRQRRRPPQ-GSGG-FKFEFKFEFKFE-NH2 [Example 1]
- anti-prion activity (PK-resistant PrP^SC level by western blot) (PrP^SC in ScN2a cells): gradual decrease in the PrP^SC concentration as its concentration is increased
- concentration at which anti-prion activity is exhibited (PrP^SC in ScN2a cells): ≥ 100 nM

Compound: H-RR-ahx-FKFEFKFEFKFE-NH2 [Example 2]
- anti-prion activity (PK-resistant PrP^SC level by western blot) (PrP^SC in ScN2a cells): shows anti-prion activity, although weaker than that of the fusion peptide of Example 1

Compound: H-RRRRRRRRRRRRRR-GSGG-FKFEFKFEFKFE-NH2 [Example 4]
- anti-prion activity at 30 nM (PrP^SC in ScN2a cells): remarkably high anti-prion activity

Compound: H-RRRRRRRRRRRRRRR-GSGG-FKFEFKFEFKFE-NH2 [Example 5]
- anti-prion activity at 30 nM (PrP^SC in ScN2a cells): remarkably high anti-prion activity

Compound: RRRRRRRRRRRRGSGGFKFEFKFEFKFE-NH2 [Example 3]
- anti-prion activity (PK-resistant PrP^SC level by western blot) (PrP^SC in ScN2a cells): remarkably higher anti-prion activity than the peptide consisting only of arginine residues of the same number (R12)
- anti-prion activity at 10 nM (PrP^SC in ScN2a cells): remarkably superior anti-prion activity
- fold decrease of anti-prion activity compared to R12-β UNS (PrP^SC in ScN2a cells): ≥ 14.5 times
- zeta potential difference, acidic condition (pH 2-5.5) versus neutral condition ([1]; pH 2): +14 to 18 mV
- zeta potential ([1]; pH 3): +40 mV
- zeta potential ([1]; pH 5): +38 mV
- zeta potential ([1]; pH 7): +24 mV
- zeta potential ([1]; pH 11): +30 mV
- diameter of vesicular nanostructure [2]: 20-90 nm
- height of vesicular nanostructure, on average [2]: 1-20 nm
- height of vesicular nanostructure, specifically [2]: 8-16 nm
- width of vesicular nanostructure, on average [2]: 50-100 nm
- width of vesicular nanostructure, specifically [2]: 70-90 nm
- cytotoxicity (ScN2a cells): significantly lower toxicity than the peptide of Comparative Example 3
- viability (in vitro): ≥ 70%

Compound: RRRRRRRRRRRRGSGGFKFEFKFEFKFE-NH2 [R12-β SPN]
- anti-prion activity (PK-resistant PrP^SC level by western blot) (PrP^SC in ScN2a cells): comparable to that of the peptide of Example 1
- cytotoxicity (ScN2a cells): moderate cytotoxicity

Compound: RRRRRRRRRRRRGSGGFKFEFKFEFKFE-NH2 [R12-β UNS]
- anti-prion activity (PK-resistant PrP^SC level by western blot) (PrP^SC in ScN2a cells): comparable to that of the peptide Comparative Example 3
- fold higher anti-prion activity than R12-β SPN (fibrillar nanostructure) (PrP^SC in ScN2a cells): 14.5 times
- cytotoxicity at 10 μM (ScN2a cells; pH 7.4): low toxicity
